Test results from patent US11000033B2, “Ketone or oxime compound, and herbicide” (NISSAN CHEMICAL CORPORATION, priority 2014, dated 2021).

Legend:
Assay type in all cases: in vivo
[1] = system: rapeseed; assay: Test Example 5: effect on crop by foliage application, plastic box (symbol g); settings: 320 g/ha, 3 weeks after application
Method in brief: (§1)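 Crop and weed seeds sown in spots in sterilized diluvial soil in plastic boxes and covered with about 1.5 cm soil. Plants raised in a greenhouse at 25° C. to 30° C. for foliar application.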

[2] = system: Scirpus juncoides; assay: Test Example 2: herbicidal activity, application during weed generation in submerged conditions (symbol B); settings: Table 23; application herbicide amount 320 g/ha; grade 0-5 by criteria of Test Example 1
Description: (§2) Herbicidal Activity Test by Application During Weed Generation in Submerged Conditions
(§3) After alluvial soil was placed into 1/10000 are of Wagner pot, water was poured and mixed to form a submerged condition having a water depth of 4 cm. Seeds of Echinochloa oryzacola Vasing., Scirpus juncoides, and Monochoria vaginalis were sowed in a mixed manner in the above pot and the pot was placed in the greenhouse of 25° C. to 30° C. to grow the plants. When Echinochloa oryzacola Vasing., Scirpus juncoides, and Monochoria vaginalis were grown to one leaf stage to two leaf stage, the emulsion agent of the compound of the present invention prepared in accordance with Formulation Example 2 was diluted with water so as to be a predetermined herbicide amount and the diluted emulsion agent was applied to the surface of the water. 3 weeks later from the herbicide application, the effect to each plant was investigated in accordance with the criteria of Test Example 1.

[3] = system: Veronica persica; assay: Test Example 5: herbicidal effect by foliage application, plastic box (symbol R); settings: 320 g/ha, 3 weeks after application
Method in brief: (§4)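 Seeds were sown in sterilized diluvial soil, covered with about 1.5 cm of soil and grown 14 days in a greenhouse at 25° C. to 30° C. An emulsifiable formulation diluted in water to a set rate was sprayed over foliage, and injury was scored 3 weeks later.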

[4] = system: Digitaria ciliaris; assay: Test Example 5: herbicidal effect by foliage application, plastic box (symbol F); settings: 320 g/ha, 3 weeks after application
Method in brief: as §4

[5] = system: wheat; assay: Test Example 5: effect on crop by foliage application, plastic box (symbol e); settings: 320 g/ha, 3 weeks after application
Method in brief: as §1

[6] = system: Cyperus difformis; assay: Test Example 3: herbicidal effect by foliage application, Wagner pot (symbol E); settings: application herbicide amount 320 g/ha
Method in brief: (§5)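 Plants sown in submerged alluvial soil (water depth 0.1–0.5 cm) in a 25–30 °C greenhouse and grown 14 days. An emulsion of the compound diluted in water to a set herbicide amount was sprayed uniformly on foliage. Effect on each plant scored 3 weeks after application.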

[7] = system: rice plant; assay: Test Example 5: effect on crop by foliage application, plastic box (symbol b); settings: 320 g/ha, 3 weeks after application
Method in brief: as §1

[8] = system: Lolium multiflorum Lam.; assay: Test Example 5: herbicidal effect by foliage application, plastic box (symbol K); settings: 320 g/ha, 3 weeks after application
Method in brief: as §4

[9] = system: directly sowed rice plant; assay: Test Example 3: effect on crop by foliage application, Wagner pot (symbol b); settings: application herbicide amount 320 g/ha
Method in brief: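 Alluvial soil in a 1/10000-are Wagner pot was flooded to a water depth of 0.1–0.5 cm. Echinochloa crus-galli var. crus-galli, Leptochloa chinensis, Cyperus difformis and rice were sown into it and grown in a greenhouse at 25–30 °C.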

[10] = system: Chenopodium album; assay: Test Example 5: herbicidal effect by foliage application, plastic box (symbol O); settings: 320 g/ha, 3 weeks after application
Method in brief: as §4

[11] = system: Stellaria media; assay: Test Example 5: herbicidal effect by foliage application, plastic box (symbol P); settings: 320 g/ha, 3 weeks after application
Method in brief: as §4

[12] = system: Echinochloa crus-galli var. crus-galli; assay: Test Example 5: herbicidal effect by foliage application, plastic box (symbol H); settings: 320 g/ha, 3 weeks after application
Method in brief: as §4

[13] = system: Amaranthus retroflexus; assay: Test Example 5: herbicidal effect by foliage application, plastic box (symbol N); settings: 320 g/ha, 3 weeks after application
Method in brief: as §4

[14] = system: Galium spurium; assay: Test Example 5: herbicidal effect by foliage application, plastic box (symbol Q); settings: 320 g/ha, 3 weeks after application
Method in brief: as §4

[15] = system: Setaria viridis; assay: Test Example 5: herbicidal effect by foliage application, plastic box (symbol G); settings: 320 g/ha, 3 weeks after application
Method in brief: as §4

[16] = system: Echinochloa oryzacola Vasing.; assay: Test Example 2: herbicidal activity, application during weed generation in submerged conditions (symbol A); settings: Table 23; application herbicide amount 320 g/ha; grade 0-5 by criteria of Test Example 1
Description: as §2, §3

[17] = system: Monochoria vaginalis; assay: Test Example 2: herbicidal activity, application during weed generation in submerged conditions (symbol C); settings: Table 23; application herbicide amount 320 g/ha; grade 0-5 by criteria of Test Example 1
Description: as §2, §3

[18] = system: beet; assay: Test Example 5: effect on crop by foliage application, plastic box (symbol f); settings: 320 g/ha, 3 weeks after application
Method in brief: as §1

[19] = system: Abutilon theophrasti; assay: Test Example 5: herbicidal effect by foliage application, plastic box (symbol M); settings: 320 g/ha, 3 weeks after application
Method in brief: as §4

[20] = system: Echinochloa crus-galli var. crus-galli; assay: Test Example 3: herbicidal effect by foliage application, Wagner pot (symbol H); settings: application herbicide amount 320 g/ha
Method in brief: as §5

[21] = system: Leptochloa chinensis; assay: Test Example 3: herbicidal effect by foliage application, Wagner pot (symbol D); settings: application herbicide amount 320 g/ha
Method in brief: as §5

[22] = system: Apera spica-venti; assay: Test Example 5: herbicidal effect by foliage application, plastic box (symbol L); settings: 320 g/ha, 3 weeks after application
Method in brief: as §4

[23] = system: corn; assay: Test Example 5: effect on crop by foliage application, plastic box (symbol c); settings: 320 g/ha, 3 weeks after application
Method in brief: as §1

[24] = system: Alopecurus myosuroides; assay: Test Example 5: herbicidal effect by foliage application, plastic box (symbol J); settings: 320 g/ha, 3 weeks after application
Method in brief: as §4

[25] = system: soybean; assay: Test Example 5: effect on crop by foliage application, plastic box (symbol d); settings: 320 g/ha, 3 weeks after application
Method in brief: as §1

[26] = system: Avena fatua; assay: Test Example 5: herbicidal effect by foliage application, plastic box (symbol I); settings: 320 g/ha, 3 weeks after application
Method in brief: as §4

[27] = system: transplanted rice plant; assay: Test Example 1: effect on crop, application before weed generation in submerged conditions (symbol a); settings: application herbicide amount 320 g/ha
Method in brief: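 Alluvial soil pots flooded to 4 cm water, sown with Echinochloa oryzacola, Scirpus juncoides and Monochoria vaginalis, then transplanted with 2.5 leaf stage rice seedlings; pre-emergence application. Greenhouse 25° C. to 30° C.; scored 0–5 by herbicidal ratio 3 weeks after application.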

[28] = system: Echinochloa oryzacola Vasing.; assay: Test Example 1: herbicidal activity, application before weed generation in submerged conditions (symbol A); settings: application herbicide amount 320 g/ha
Method in brief: (§6)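 Compound emulsion was diluted to a set herbicide amount and applied to the water surface on the sowing day, into submerged (4 cm) alluvial-soil pots sown with mixed weed seeds and transplanted 2.5-leaf rice. Pots were held in a 25–30 °C greenhouse, and weeds were scored 0–5 by herbicidal ratio after 3 weeks.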

[29] = system: Monochoria vaginalis; assay: Test Example 1: herbicidal activity, application before weed generation in submerged conditions (symbol C); settings: application herbicide amount 320 g/ha
Method in brief: as §6

[30] = system: Scirpus juncoides; assay: Test Example 1: herbicidal activity, application before weed generation in submerged conditions (symbol B); settings: application herbicide amount 320 g/ha
Method in brief: as §6

Row | Structure (SMILES) | g: rapeseed, effect on crop grade [1] | Herbicidal effect grade, B: Scirpus juncoides [2] | R: Veronica persica, herbicidal effect grade [3] | F: Digitaria ciliaris, herbicidal effect grade [4] | e: wheat, effect on crop grade [5] | b: directly sowed rice plant, effect on crop grade [7] | K: Lolium multiflorum Lam., herbicidal effect grade [8] | effect on crop b (directly sowed rice plant), grade 0-5 [9] | O: Chenopodium album, herbicidal effect grade [10] | P: Stellaria media, herbicidal effect grade [11] | H: Echinochloa crus-galli var. crus-galli, herbicidal effect grade [12] | N: Amaranthus retroflexus, herbicidal effect grade [13] | Q: Galium spurium, herbicidal effect grade [14] | G: Setaria viridis, herbicidal effect grade [15] | Herbicidal effect grade, A: Echinochloa oryzacola Vasing. [16] | Herbicidal effect grade, C: Monochoria vaginalis [17] | f: beet, effect on crop grade [18] | M: Abutilon theophrasti, herbicidal effect grade [19] | herbicidal effect on H (Echinochloa crus-galli var. crus-galli), grade 0-5 [20] | herbicidal effect on D (Leptochloa chinensis), grade 0-5 [21] | also measured
1 | CON=C(C)CC1CC(O)=C(c2c(C)cc(C#CC(C)(C)O)cc2C)C1=O (mixture of isomers) [6-036] | 3 (Herbicidal ratio of 40% or higher and lower than 70%) | 0 (Herbicidal ratio of 5% or lower (almost no effect)) | 3 (Herbicidal ratio of 40% or higher and lower than 70%) | 4 (Herbicidal ratio of 70% or higher and lower than 90%) | 0 (Herbicidal ratio of 5% or lower (almost no effect)) | 4 (Herbicidal ratio of 70% or higher and lower than 90%) | 5 (Herbicidal ratio of 90% or more (almost completely withered)) | 4 (Herbicidal ratio of 70% or higher and lower than 90%) | 0 (Herbicidal ratio of 5% or lower (almost no effect)) | 1 (Herbicidal ratio of 5% or higher and lower than 20%) | 5 (Herbicidal ratio of 90% or more (almost completely withered)) | 0 (Herbicidal ratio of 5% or lower (almost no effect)) | 0 (Herbicidal ratio of 5% or lower (almost no effect)) | 4 (Herbicidal ratio of 70% or higher and lower than 90%) | 3 (Herbicidal ratio of 40% or higher and lower than 70%) | 0 (Herbicidal ratio of 5% or lower (almost no effect)) | 0 (Herbicidal ratio of 5% or lower (almost no effect)) | 0 (Herbicidal ratio of 5% or lower (almost no effect)) | 4 (Herbicidal ratio of 70% or higher and lower than 90%) | 5 (Herbicidal ratio of 90% or more (almost completely withered)) | herbicidal effect on E, grade 0-5 [6]: 3 (Herbicidal ratio of 40% or higher and lower than 70%); L: Apera spica-venti, herbicidal effect grade [22]: 3 (Herbicidal ratio of 40% or higher and lower than 70%); c: corn, effect on crop grade [23]: 4 (Herbicidal ratio of 70% or higher and lower than 90%); J: Alopecurus myosuroides, herbicidal effect grade [24]: 3 (Herbicidal ratio of 40% or higher and lower than 70%); d: soybean, effect on crop grade [25]: 0 (Herbicidal ratio of 5% or lower (almost no effect)); I: Avena fatua, herbicidal effect grade [26]: 3 (Herbicidal ratio of 40% or higher and lower than 70%)
2 | CON=C(C)CC1CC(OCC(Cl)=CCl)=C(c2c(C)cc(C)cc2C)C1=O (stereo not shown) [1-166] | 4 (Herbicidal ratio of 70% or higher and lower than 90%) | 0 (Herbicidal ratio of 5% or lower (almost no effect)) | 0 (Herbicidal ratio of 5% or lower (almost no effect)) | 1 (Herbicidal ratio of 5% or higher and lower than 20%) | 1 (Herbicidal ratio of 5% or higher and lower than 20%) | 3 (Herbicidal ratio of 40% or higher and lower than 70%) | 5 (Herbicidal ratio of 90% or more (almost completely withered)) | 3 (Herbicidal ratio of 40% or higher and lower than 70%) | 0 (Herbicidal ratio of 5% or lower (almost no effect)) | 0 (Herbicidal ratio of 5% or lower (almost no effect)) | 4 (Herbicidal ratio of 70% or higher and lower than 90%) | 0 (Herbicidal ratio of 5% or lower (almost no effect)) | 0 (Herbicidal ratio of 5% or lower (almost no effect)) | 1 (Herbicidal ratio of 5% or higher and lower than 20%) | 3 (Herbicidal ratio of 40% or higher and lower than 70%) | 0 (Herbicidal ratio of 5% or lower (almost no effect)) | 0 (Herbicidal ratio of 5% or lower (almost no effect)) | 3 (Herbicidal ratio of 40% or higher and lower than 70%) | 4 (Herbicidal ratio of 70% or higher and lower than 90%) | 4 (Herbicidal ratio of 70% or higher and lower than 90%) | Effect grade on crop, a: transplanted rice plant [27]: 0 (Herbicidal ratio of 5% or lower (almost no effect)); Herbicidal effect grade, A: Echinochloa oryzacola Vasing. [28]: 5 (Herbicidal ratio of 90% or more (almost completely withered)); Herbicidal effect grade, C: Monochoria vaginalis [29]: 0 (Herbicidal ratio of 5% or lower (almost no effect)); L: Apera spica-venti, herbicidal effect grade [22]: 5 (Herbicidal ratio of 90% or more (almost completely withered)); c: corn, effect on crop grade [23]: 1 (Herbicidal ratio of 5% or higher and lower than 20%); J: Alopecurus myosuroides, herbicidal effect grade [24]: 4 (Herbicidal ratio of 70% or higher and lower than 90%); d: soybean, effect on crop grade [25]: 1 (Herbicidal ratio of 5% or higher and lower than 20%); I: Avena fatua, herbicidal effect grade [26]: 5 (Herbicidal ratio of 90% or more (almost completely withered)); Herbicidal effect grade, B: Scirpus juncoides [30]: 0 (Herbicidal ratio of 5% or lower (almost no effect))
